Our source for the IC50 values is patent US8846704B2, “Thiopyrimidine-based compounds and uses thereof” (YM Biosciences Austraila Pty Ltd, priority 2007, dated 2014).

This test addresses T1, FLT-3 tyrosine kinase (Homo sapiens, UniProt P36888).
T1 construct: purchased Upstate Cell Signalling Solutions, CA, USA 14-500
T1 sequence (P36888 27-993): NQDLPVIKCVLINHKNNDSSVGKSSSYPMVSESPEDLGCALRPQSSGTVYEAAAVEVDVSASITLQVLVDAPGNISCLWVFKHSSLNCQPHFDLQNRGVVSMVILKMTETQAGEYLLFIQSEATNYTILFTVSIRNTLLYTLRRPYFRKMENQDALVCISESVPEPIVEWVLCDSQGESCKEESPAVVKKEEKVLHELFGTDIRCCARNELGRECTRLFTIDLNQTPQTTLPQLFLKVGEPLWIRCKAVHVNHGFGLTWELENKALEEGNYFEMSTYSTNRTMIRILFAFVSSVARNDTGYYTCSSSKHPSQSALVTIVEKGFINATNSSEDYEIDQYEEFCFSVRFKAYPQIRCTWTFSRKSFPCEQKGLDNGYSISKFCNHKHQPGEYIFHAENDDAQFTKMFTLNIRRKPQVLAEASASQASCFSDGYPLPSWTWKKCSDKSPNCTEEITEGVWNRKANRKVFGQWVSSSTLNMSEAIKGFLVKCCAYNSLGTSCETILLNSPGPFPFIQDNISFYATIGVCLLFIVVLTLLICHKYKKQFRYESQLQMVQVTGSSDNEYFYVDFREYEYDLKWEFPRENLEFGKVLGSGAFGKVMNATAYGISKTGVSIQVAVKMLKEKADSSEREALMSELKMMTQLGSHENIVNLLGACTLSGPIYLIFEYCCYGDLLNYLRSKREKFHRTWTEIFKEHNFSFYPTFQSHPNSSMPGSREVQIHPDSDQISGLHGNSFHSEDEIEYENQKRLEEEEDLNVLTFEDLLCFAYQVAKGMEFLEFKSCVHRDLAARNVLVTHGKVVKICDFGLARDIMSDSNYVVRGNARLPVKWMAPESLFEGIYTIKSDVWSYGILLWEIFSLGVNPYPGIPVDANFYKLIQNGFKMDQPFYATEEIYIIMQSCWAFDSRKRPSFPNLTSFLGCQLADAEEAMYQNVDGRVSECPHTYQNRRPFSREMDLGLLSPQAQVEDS
Kind of test: Alphascreen tyrosine kinase enzyme assay, FLT-3. Format: biochemical. The conditions noted are these: FLT3; read-out: FMS, FLT3, or HCK IC50_nM (FLT3). As to the method:
For screening purposes, compounds (in 100% DMSO) were warmed at 37 degrees for at least 20 minutes before use. A […] stock was initially made in assay buffer, where the final concentration of DMSO was 0.3%. The stocks were then diluted in 384 well Optiplates (Packard) where the final concentration of the compound was […].
FLT-3 tyrosine kinase enzyme was purchased from Upstate Cell Signalling Solutions, CA, USA (flt-3 catalog #: 14-500).
Kinase assays were performed in 384 well Optiplates (Packard) using an Alphascreen Protein Tyrosine Kinase PY100 detection kit The compounds were pre-incubated with affinity purified PTK domain in the presence of phosphotyrosine assay buffer (10 mM HEPES, pH 7.5, 100 mM MgCl2, 25 mM NaCl, […] and 0.1% Tween 20) for 20 minutes. The compounds were then incubated with substrate in the presence of ATP. The substrate used was susbtrate-1 with the sequence biotin-EGPWLEEEEEAYGWMDF-NH2 [SEQ. ID. NO. 13] (final concentration […]). For HCK 80 μm ATP was used and incubated for 60 minutes. Alphascreen phosphotyrosine acceptor beads followed by streptavidin donor beads at a concentration of 1/100 in stop buffer were added to each well under subdued light and incubated for 2-3 hours., The Alphascreen plates were read on a Packard Fusion Alpha instrument.

As to `COc1cc(Nc2nccc(Sc3ccc(NCC#N)cc3)n2)cc(OC)c1OC` [Compound 52, 2-(4-(2-(3,4,5-trimethoxyphenylao)pyrimidin-4-ylthio)phenylao)acetonitrile], the IC50 was less than 500 nM.
